Measurements: patent publication US11773368B2, “Culture method for differentiating primordial germ cells into functionally mature oocytes” (TOKYO UNIVERSITY OF AGRICULTURE, priority 2015, dated 2023)
Entries after “also recorded” stand apart in the source; their conditions may differ.

How the values were obtained:
[1] = tested on: primordial germ cells in gonads from female mouse fetuses at 12.5 dpc; test: In vitro organ culture of gonad (secondary follicle formation); assay type: cell-based
Description: For the medium of the organ culture, the basal medium supplemented with FBS (Gibco, Thermo Fisher Scientific Inc.), SPS (SAGE In vitro Fertilization), the estrogen receptor antagonist, 7α, 17β-[9-([4,4,5,5,5-pentafluoropentyl]sulfinyl)nonyl]estra-1,3,5(10)-triene-3,17-diol; ICI 182,780 (ICI; Tocris Bioscience), 4-hydroxytamoxifen (Sigma-Aldrich), and MPP (Methylpiperidino pyrazole; Cayman Chemical) were added at the indicated concentrations for each experimental group below. The α-MEM medium (Gibco, Thermo Fisher Scientific Inc.) supplemented with 1.5 mM 2-O-α-d glucopyranosyl-1-ascorbic acid (Tokyo Chemical Industry), 10 units/mL penicillin, and 10 μg/mL streptomycin (Sigma-Aldrich) was used as a basal medium (referred to the basal medium hereafter as α-MEM).
ICI 182,780 and 4-hydroxytamoxifen was prepared as follows. ICI 182,780 and 4-hydroxytamoxifen was diluted to 100 mM using DMSO, and cryopreserved stock was prepared. MPP was diluted to 10 mM using DMSO, and cryopreserved stock was prepared. 1 mM solutions of ICI 182, 780 and 4-hydroxytamoxifen were prepared by diluting the 100 mM stocks 100-fold with DMSO just before use and were added to the medium at the indicated final concentrations for each experimental group. MPP was added to the medium at 1 μM as the final concentration just before use.
The gonads for the organ culture were collected with mesonephros or without mesonephros from female mouse fetuses at 12.5 dpc (FIG. 1a). 2.2 ml of the medium was added to each 6-well culture plate used for the organ culture. Transwell®-COL membrane (3.0-μm pore size, 24-mm diameter; Corning) was put on each well of the 6-well culture plate. The gonads were transferred on the membrane and were cultured for 17 days at 37° C. under 5% CO2 and 95% air. Approximately half of the medium in each well was replaced with fresh medium every other day. In the example in which the gonad was cultured with mesonephros, mesonephros was removed from the gonad at day 7 of the organ culture.
The in vitro organ culture of the gonads was performed according to the following conditions described below. The gonads were cultured for total 17 days in each conditions below (FIG. 2):
(i) culture for the complete 17 days period in 10% FBS containing α-MEM (α-MEM+FBS; FBS group);
(ii) culture for the complete 17 days period in 10% SPS containing α-MEM (α-MEM+SPS; SPS group);
(iii) culture for the complete 17 days period in 10% KSR containing α-MEM (α-MEM+KSR; KSR group);
(iv) culture in 10% FBS containing α-MEM for 4 days with a shift to 10% SPS containing α-MEM for 6 days from day 5 and a shift to 10% FBS containing α-MEM until day 17 from day 11 (αMEM+FBS/SPS; FBS/SPS group);
(v) culture in 10% FBS containing α-MEM for 4 days with a shift to 10% FBS containing α-MEM with the addition of 10 nM, 100 nM, 1 μM, 5 μM, or 10 μM (final concentration) ICI for 6 days from day 5 and a shift to 10% FBS containing α-MEM until day […] (αMEM+FBS/10 nM ICI; FBS/10 nM ICI group, αMEM+FBS/100 nM ICI; FBS/100 nM ICI group, αMEM+FBS/1 μM ICI; FBS/1 μM ICI group, αMEM+FBS/5 μM ICI; FBS/5 μM ICI group, or αMEM+FBS/10 μM ICI; FBS/10 μM ICI group);
(vi) culture in 10% FBS containing α-MEM for 4 days with a shift to 10% FBS containing α-MEM with the addition of 1 μM (final concentration) 4-hydroxytamoxifen for 6 days from day 5 and a shift to 10% FBS containing α-MEM until day 17 from day 11 (αMEM+FBS/1 μM Tamoxifen; FBS/1 μM Tamoxifen group);
(vii) culture in 10% FBS containing α-MEM for 4 days with a shift to 10% FBS containing α-MEM with the addition of 1 μM (final concentration) MPP for 6 days from day 5 and a shift to 10% FBS containing α-MEM until day 17 from day 11 (αMEM+FBS/1 μM MPP; FBS/1 μM MPP group).
Vitrification and warming were conducted as follows by reference to Wang, X. et al., “Successful in vitro culture of pre-antral follicles derived from vitrified murine ovarian tissue: oocyte maturation, fertilization, and live births.” Reproduction 141, 183-191 (2011). […]

in vitro-matured eggs = test: In vitro fertilization and embryo transfer with in vitro-mature egg; assay type: cell-based, mouse
Description: After 17 hours of the culture, the eggs with expanded cumulus cells were transferred into TYH medium (LSI Medience Corporation) and fertilized with epididymal sperm. In (ii) SPS group, (iv) FBS/SPS group, (v) FBS/ICI group, about 27 to 58% of eggs which processed for in vitro fertilization (IVF) were normally fertilized. Normally fertilized eggs with 2 pronuclei were cultured in KSOM medium. About 83 to 97% Embryos from the fertilized eggs developed to the 2-cell stage. The embryos developed to the 2-cell stage by the culture were transferred into the oviducts of pseudopregnant females at 0.5 dpc. Offspring were delivered by natural means or by caesarean section at 19.5 dpc. As a result, about 14 to 40% of the transferred embryos developed to offspring. The obtained offspring were raised by foster mothers. The offspring were weaned at about 4 weeks of age. […] As mentioned above, there has been no report that eggs obtained by in vitro culture in which the primordial germ cell was used as the starting material developed to offspring. […] In in vitro culture method for producing the functional egg from the primordial germ cell according to this invention, seven pups from one ovary were obtained at a maximum, and on average, 0.3 to 3.3 pups were obtained from one ovary. Pups were physically normal, and they developed normally. Male and female mice developed from eggs differentiated and matured in in vitro culture could produce the offspring after sexual maturation (Table. 2 and FIG. 12).

[2] = FBS/1 μM ICI group (ICI day 5-11), 19 cultured gonads
[3] = FBS/5 μM ICI group (ICI day 5-11), 6 cultured gonads
[4] = FBS/10 μM ICI group (ICI day 5-11), 6 cultured gonads
[5] = Vitrification FBS/1 μM ICI (vitrified-warmed gonads), 4 cultured gonads
[6] = FBS/1 μM ICI group (ICI day 5-11)
[7] = FBS/5 μM ICI group (ICI day 5-11)
[8] = FBS/10 μM ICI group (ICI day 5-11)
[9] = Vitrification FBS/1 μM ICI (vitrified-warmed gonads)

Q: How did the “follicle morphology of the ovary under an optical microscope” value ([1]; (v) FBS/ICI group, FIG. 3d (10 μM ICI)) turn out when `C[C@]12CC[C@@H]3c4ccc(O)cc4C[C@@H](CCCCCCCCC[S+]([O-])CCCC(F)(F)C(F)(F)F)[C@H]3[C@@H]1CC[C@@H]2O` (stereo partly drawn) [ICI, 7α, 17β-[9-([4,4,5,5,5-pentafluoropentyl]sulfinyl)nonyl]estra-1,3,5(10)-triene-3,17-diol] was run?
A: abnormalities were significantly improved

Q: And the “number of the collected secondary follicles” value ([1]; (v) ICI group, 10 nM, 100 nM, 1 μM, 5 μM or 10 μM ICI day 5-11, FIG. 4)?
A: increased depending on the ICI concentration; also recorded: significantly increased compared to FBS group

Q: And the “No. of collected follicles” value [1, 2]?
A: 641

Q: And the “No. of collected follicles” value [1, 3]?
A: 312

Q: And the “No. of collected follicles” value [1, 4]?
A: 505

Q: And the “No. of collected follicles” value [1, 5]?
A: 57

Q: What about the “follicles obtained from one ovary” value ([1]; vitrified and warmed gonads, FBS/1 μM ICI conditions) of the same compound?
A: about 14

Q: And the “No. of eggs fertilized normally, proportion to the number of collected follicles” value (in vitro-matured eggs; [6])?
A: 26.2%

Q: And the “No. of embryos developed to two-cell, proportion to the number of collected follicles” value (in vitro-matured eggs; [6])?
A: 24.2%

Q: What about the “No. of pups developed from embryos, proportion to the number of collected follicles” value (“No. of pups developed … of collected follicles” for short) (in vitro-matured eggs; [6]) of the same compound?
A: 4.8%

Q: And the “No. of pups from an ovary” value (in vitro-matured eggs; [6])?
A: 1.6

Q: And the “No. of eggs fertilized normally” value (in vitro-matured eggs; [2])?
A: 168

Q: And the “No. of embryos developed to two-cell” value (in vitro-matured eggs; [2])?
A: 155

Q: And the “No. of pups developed from embryos” value (in vitro-matured eggs; [2])?
A: 31

Q: And the “No. of eggs fertilized normally, proportion to the number of collected follicles” value (in vitro-matured eggs; [7])?
A: 30.1%

Q: And the “No. of embryos developed to two-cell, proportion to the number of collected follicles” value (in vitro-matured eggs; [7])?
A: 29.2%

Q: And the “No. of pups developed … of collected follicles” value (in vitro-matured eggs; [7])?
A: 6.4%

Q: And the “No. of pups from an ovary” value (in vitro-matured eggs; [7])?
A: 3.3

Q: What about the “No. of eggs fertilized normally” value (in vitro-matured eggs; [3]) of the same compound?
A: 94

Q: And the “No. of embryos developed to two-cell” value (in vitro-matured eggs; [3])?
A: 91

Q: What about the “No. of pups developed from embryos” value (in vitro-matured eggs; [3]) of the same compound?
A: 20

Q: What about the “No. of eggs fertilized normally, proportion to the number of collected follicles” value (in vitro-matured eggs; [8]) of the same compound?
A: 29.3%

Q: What about the “No. of embryos developed to two-cell, proportion to the number of collected follicles” value (in vitro-matured eggs; [8]) of the same compound?
A: 27.3%

Q: What about the “No. of pups developed … of collected follicles” value (in vitro-matured eggs; [8]) of the same compound?
A: 3.8%

Q: What about the “No. of pups from an ovary” value (in vitro-matured eggs; [8]) of the same compound?
A: 3.2

Q: What about the “No. of eggs fertilized normally” value (in vitro-matured eggs; [4]) of the same compound?
A: 148

Q: And the “No. of embryos developed to two-cell” value (in vitro-matured eggs; [4])?
A: 138

Q: What about the “No. of pups developed from embryos” value (in vitro-matured eggs; [4]) of the same compound?
A: 19

Q: What about the “No. of eggs fertilized normally, proportion to the number of collected follicles” value (in vitro-matured eggs; [9]) of the same compound?
A: 33.3%

Q: And the “No. of embryos developed to two-cell, proportion to the number of collected follicles” value (in vitro-matured eggs; [9])?
A: 26.3%

Q: What about the “No. of pups developed … of collected follicles” value (in vitro-matured eggs; [9]) of the same compound?
A: 3.5%

Q: And the “No. of pups from an ovary” value (in vitro-matured eggs; [9])?
A: 0.5

Q: And the “No. of eggs fertilized normally” value (in vitro-matured eggs; [5])?
A: 19

Q: What about the “No. of embryos developed to two-cell” value (in vitro-matured eggs; [5]) of the same compound?
A: 15

Q: And the “No. of pups developed from embryos” value (in vitro-matured eggs; [5])?
A: 2
